Target: T1, human NOX4 (Homo sapiens, UniProt Q9NPH5)
T1 construct: The full-length human NOX4 (NM_016931.3) transcript was cloned; expressed in transfected cells
T1 sequence (Q9NPH5 1-578): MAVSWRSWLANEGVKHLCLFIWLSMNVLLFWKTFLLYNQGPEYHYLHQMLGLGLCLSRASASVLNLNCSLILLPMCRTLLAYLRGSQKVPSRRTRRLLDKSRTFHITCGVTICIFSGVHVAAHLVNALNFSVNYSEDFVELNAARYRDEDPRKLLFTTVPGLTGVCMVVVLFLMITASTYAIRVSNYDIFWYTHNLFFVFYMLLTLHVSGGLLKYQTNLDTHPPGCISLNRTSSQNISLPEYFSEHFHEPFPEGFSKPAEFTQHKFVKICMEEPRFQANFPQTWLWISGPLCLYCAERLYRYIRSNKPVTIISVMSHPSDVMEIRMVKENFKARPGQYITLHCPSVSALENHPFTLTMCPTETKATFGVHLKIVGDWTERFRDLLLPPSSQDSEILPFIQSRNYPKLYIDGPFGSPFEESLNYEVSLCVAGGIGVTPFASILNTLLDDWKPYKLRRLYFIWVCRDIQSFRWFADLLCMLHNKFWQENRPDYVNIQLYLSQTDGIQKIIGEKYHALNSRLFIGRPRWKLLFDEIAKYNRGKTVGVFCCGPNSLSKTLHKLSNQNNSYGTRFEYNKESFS
T1 sequence (P13498 1-195 partner): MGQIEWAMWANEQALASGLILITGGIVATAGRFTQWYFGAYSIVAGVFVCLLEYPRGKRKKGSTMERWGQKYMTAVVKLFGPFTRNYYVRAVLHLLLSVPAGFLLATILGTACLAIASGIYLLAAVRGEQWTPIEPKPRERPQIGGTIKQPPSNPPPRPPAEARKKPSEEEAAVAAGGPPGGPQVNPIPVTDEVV
Experiment: Amplex Red activity assay (cellular H2O2 formation in hNOX4 T-REx-293 cells)
Assay type: cell-based
Conditions: tet-induced 24 h, extracellular H2O2 by Amplex Red, 60 min 25° C., geometric mean if determined several times
Outline: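 Tet-induced (1 μg/mL, 24 h) HEK293 T-REx cells stably expressing full-length human NOX4, 20 000 cells/well, exposed to compounds (10 concentrations, 50 μM to 100 nM; 1.25% DMSO) for 60 min at 25°C. Extracellular H2O2 detected by Amplex Red resorufin fluorescence (ex 550/em 600 nm) versus vehicle; IC50 calculated.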

SMILES | IC50 [nM]
CN1CCC2(CC1)CN(c1nc3cc(NC(=O)c4ccc5c(c4)CCO5)ccc3o1)C2 [Example 68, 2,3-Dihydro-benzofuran-5-carboxylic acid [2-(7-methyl-2,7-diaza-spiro[3.5]non-2-yl)-benzooxazol-5-yl]-amide] | 1790
CN(C)C1CN(c2nc3cc(NC(=O)c4ccc5c(c4)CCO5)ccc3o2)C1 [Example 69, 2,3-Dihydro-benzofuran-5-carboxylic acid [2-(3-dimethylamino-azetidin-1-yl)-benzooxazol-5-yl]-amide] | 1930
O=C(Nc1ccc2oc(N3CC4(C3)CS(=O)(=O)C4)nc2c1)c1ccc2c(c1)CCO2 [Example 70, 2,3-Dihydro-benzofuran-5-carboxylic acid [2-(2,2-dioxo-2l6-thia-6-aza-spiro[3.3]hept-6-yl)-benzooxazol-5-yl]-amide] | 889
O=C(Nc1ccc2oc(N3CCC34CCOC4)nc2c1)c1ccc2c(c1)CCO2 (stereo not shown) [Example 71, 2,3-Dihydro-benzofuran-5-carboxylic acid [2-(6-oxa-1-aza-spiro[3.4]oct-1-yl)-benzooxazol-5-yl]-amide] | 336
O=C(Nc1ccc2oc(N3CC4(CCS4(=O)=O)C3)nc2c1)c1ccc2c(c1)CCO2 [Example 72, 2,3-Dihydro-benzofuran-5-carboxylic acid [2(1,1-dioxo-1l6-thia-6-aza-spiro[3.3]hept-6-yl)-benzooxazol-5-yl]-amide] | 524
CN(C)C1(C)CN(c2nc3cc(NC(=O)c4ccc5c(c4)CCO5)ccc3o2)C1 [Example 73, 2,3-Dihydro-benzofuran-5-carboxylic acid [2-(3-dimethylamino-3-methyl-azetidin-1-yl)-benzooxazol-5-yl]-amide] | 4100
O=C(Nc1ccc2oc(N3CC4(CCOC4)C3)nc2c1)c1ccc2c(c1)CCO2 [Example 74, 2,3-Dihydro-benzofuran-5-carboxylic acid [2-(6-oxa-2-aza-spiro[3.4]oct-2-yl)-benzooxazol-5-yl]-amide] | 1080
CN1CCN(c2nc3cc(C(=O)Nc4ccc5c(c4)CCO5)ccc3o2)CC1 [Example 75, 2-(4-Methyl-piperazin-1-yl)-benzooxazole-5-carboxylic acid (2,3-dihydro-benzofuran-5-yl)-amide] | 421
O=C(Nc1ccc2c(c1)CCO2)c1ccc2oc(N3CCCCC3)nc2c1 [Example 76, 2-Piperidin-1-yl-benzooxazole-5-carboxylic acid (2,3-dihydro-benzofuran-5-yl)-amide] | 414
O=C(Nc1ccc2c(c1)CCO2)c1ccc2oc(N3CCOCC3)nc2c1 [Example 77, 2-Morpholin-4-yl-benzooxazole-5-carboxylic acid (2,3-dihydro-benzofuran-5-yl)-amide] | 548
CCN(CC)c1nc2cc(C(=O)Nc3ccc4c(c3)CCO4)ccc2o1 [Example 78, 2-Diethylamino-benzooxazole-5-carboxylic acid (2,3-dihydro-benzofuran-5-yl)-amide] | 417
O=C(Nc1ccc2c(c1)CCO2)c1ccc2oc(N3CCCC3)nc2c1 [Example 79, 2-Pyrrolidin-1-yl-benzooxazole-5-carboxylic acid (2,3-dihydro-benzofuran-5-yl)-amide] | 585
O=C(Nc1ccc2sc(N3CCCCC3)nc2c1)c1ccc2c(c1)CCO2 [Example 81, 2,3-Dihydro-benzofuran-5-carboxylic acid (2-piperidin-1-yl-benzothiazol-5-yl)-amide] | 2450
O=C(Nc1ccc2sc(N3CCOCC3)nc2c1)c1ccc2c(c1)CCO2 [Example 82, 2,3-Dihydro-benzofuran-5-carboxylic acid (2-morpholin-4-yl-benzothiazol-5-yl)-amide] | 2350
CN1CCN(c2nc3cc(NC(=O)c4ccc5c(c4)CCO5)ccc3s2)CC1 [Example 83, 2,3-Dihydro-benzofuran-5-carboxylic acid [2-(4-methyl-piperazin-1-yl)-benzothiazol-5-yl]-amide] | 3540
O=C(Nc1ccc2sc(N3CCCC3)nc2c1)c1ccc2c(c1)CCO2 [Example 84, 2,3-Dihydro-benzofuran-5-carboxylic acid (2-pyrrolidin-1-yl-benzothiazol-5-yl)-amide] | 1320
CCN(CC)c1nc2cc(NC(=O)c3ccc4c(c3)CCO4)ccc2s1 [Example 85, 2,3-Dihydro-benzofuran-5-carboxylic acid (2-diethylamino-benzothiazol-5-yl)-amide] | 1650
O=C(Nc1ccc2sc(N3CC(F)(F)C3)nc2c1)c1ccc2c(c1)CCO2 [Example 87, 2,3-Dihydro-benzofuran-5-carboxylic acid [2-(3,3-difluoro-azetidin-1-yl)-benzothiazol-5-yl]-amide] | 4100
O=C(Nc1ccc2sc(N3CCC(F)(F)C3)nc2c1)c1ccc2c(c1)CCO2 [Example 88, 2,3-Dihydro-benzofuran-5-carboxylic acid [2-(3,3-difluoro-pyrrolidin-1-yl)-benzothiazol-5-yl]-amide] | 3660
O=C(Nc1ccc2sc(N3CCCC(F)(F)C3)nc2c1)c1ccc2c(c1)CCO2 [Example 89, 2,3-Dihydro-benzofuran-5-carboxylic acid [2-(3,3-difluoro-piperidin-1-yl)-benzothiazol-5-yl]-amide] | 1920
O=C(Nc1ccc2sc(N3CCC34COC4)nc2c1)c1ccc2c(c1)CCO2 [Example 90, 2,3-Dihydro-benzofuran-5-carboxylic acid [2-(6-oxa-1-aza-spiro[3.3]hept-1-yl)-benzothiazol-5-yl]-amide] | 361
O=C(Nc1ccc2sc(N3CC4(COC4)C3)nc2c1)c1ccc2c(c1)CCO2 [Example 91, 2,3-Dihydro-benzofuran-5-carboxylic acid [2-(2-oxa-6-aza-spiro[3.3]hept-6-yl)-benzothiazol-5-yl]-amide] | 4330
O=C(Nc1ccc2sc(N3CCS(=O)(=O)CC3)nc2c1)c1ccc2c(c1)CCO2 [Example 92, 2,3-Dihydro-benzofuran-5-carboxylic acid [2-(1,1-dioxo-1l6-thiomorpholin-4-yl)-benzothiazol-5-yl]-amide] | 2460
CN(C)CCN(C)c1nc2cc(NC(=O)c3ccc4c(c3)CCO4)ccc2s1 [Example 93, 2,3-Dihydro-benzofuran-5-carboxylic acid {2-[(2-dimethylamino-ethyl)-methyl-amino]-benzothiazol-5-yl}-amide] | 10300
COC1CCN(c2nc3cc(NC(=O)c4ccc5c(c4)CCO5)ccc3s2)C1 (stereo not shown) [Example 94, 2,3-Dihydro-benzofuran-5-carboxylic acid [2-(3-methoxy-pyrrolidin-1-yl)-benzothiazol-5-yl]-amide] | 3290
COC1CCN(c2nc3cc(NC(=O)c4ccc5c(c4)CCO5)ccc3s2)CC1 [Example 95, 2,3-Dihydro-benzofuran-5-carboxylic acid [2-(4-methoxy-piperidin-1-yl)-benzothiazol-5-yl]-amide] | 2140
CC1(O)CN(c2nc3cc(NC(=O)c4ccc5c(c4)CCO5)ccc3s2)C1 [Example 96, 2,3-Dihydro-benzofuran-5-carboxylic acid [2-(3-hydroxy-3-methyl-azetidin-1-yl)-benzothiazol-5-yl]-amide] | 2670
CN(C)C1CCN(c2nc3cc(NC(=O)c4ccc5c(c4)CCO5)ccc3s2)CC1 [Example 97, 2,3-Dihydro-benzofuran-5-carboxylic acid [2-(4-dimethylamino-piperidin-1-yl)-benzothiazol-5-yl]-amide] | 6300

Source: US11136317B2, “NADPH oxidase 4 inhibitors” (ACTELION PHARMACEUTICALS LTD, priority 2015, dated 2021)
